Assays:
[1] = target: T1, SMYD3 (Homo sapiens (Human), UniProt Q9H7B4); assay: SMYD3 biochemical assay (SPA, 3H-SAM methylation of MEKK2 protein substrate); details: read-out: SMYD3 Biochem IC50*
How it was run: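 Full-length native human SMYD3 (E. coli-expressed, tags removed) preincubated with compounds 30 min at room temperature, then reaction started with 3H-SAM and GST-tagged MEKK2 protein in 25 mM Tris-Cl pH 8.0, 1 mM TCEP, 0.005% BSG, 0.005% Tween 20. Quenched with unlabelled SAM (100 uM final); 3H-MEKK2 counted by SPA.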

[2] = target: T1, SMYD3; assay: SMYD3 cell assay (Trimethyl-MEKK2 In-Cell Western in 293T/17 cells); type: cell-based; details: read-out: SMYD3 Cell IC50*
How it was run: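 In-Cell Western ratio of trimethyl-Lys260 MEKK2 to anti-flag signal; percent inhibition from DMSO and maximum-inhibition controls, IC50 by non-linear regression, triplicates.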

[3] = IC50 values are an average of n = 1 to n = 50

T1 sequence (Q9H7B4 whole entry): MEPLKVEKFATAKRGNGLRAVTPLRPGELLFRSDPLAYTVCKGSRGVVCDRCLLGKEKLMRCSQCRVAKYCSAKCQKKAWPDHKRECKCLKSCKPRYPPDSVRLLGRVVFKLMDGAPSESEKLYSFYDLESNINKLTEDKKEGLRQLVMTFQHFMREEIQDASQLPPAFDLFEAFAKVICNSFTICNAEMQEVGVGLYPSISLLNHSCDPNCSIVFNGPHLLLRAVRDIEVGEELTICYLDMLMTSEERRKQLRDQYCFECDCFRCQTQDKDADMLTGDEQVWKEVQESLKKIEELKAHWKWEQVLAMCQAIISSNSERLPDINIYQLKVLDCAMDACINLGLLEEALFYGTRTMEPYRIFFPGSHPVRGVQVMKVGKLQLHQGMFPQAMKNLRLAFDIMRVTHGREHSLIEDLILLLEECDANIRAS

Compound	IC50 [1]	IC50 [2]	IC50 [1, 3]	IC50 [2, 3]
CCC1CN(C)CCN1S(=O)(=O)N1[C@@H]2CC[C@H]1C[C@@H](NC(=O)c1cc(C3CC3)on1)C2 (stereo partly drawn) [compound 963, 5-cyclopropyl-N-((1R,3r,5S)-8-((2-ethyl-4-methylpiperazin-1-yl)sulfonyl)-8-azabicyclo[3.2.1]octan-3-yl)isoxazole-3-carboxamide]	82.9 nM	690 nM	–	–
CN1CCCC[C@@H]1CS(=O)(=O)N1[C@@H]2CC[C@H]1C[C@@H](NC(=O)c1cc(C3CC3)on1)C2 [compound 964, 5-cyclopropyl-N-((1R,3R,5S)-8-((((R)-1-methylpiperidin-2-yl)methyl)sulfonyl)-8-azabicyclo[3.2.1]octan-3-yl)isoxazole-3-carboxamide]	83 nM	450 nM	–	–
CCCc1cc(C(=O)N[C@H]2C[C@H]3CC[C@@H](C2)N3S(=O)(=O)CC2CCN(C)CC2)no1 [compound 965, N-((1R,3r,5S)-8-(((1-methylpiperidin-4-yl)methyl)sulfonyl)-8-azabicyclo[3.2.1]octan-3-yl)-5-propylisoxazole-3-carboxamide]	85.3 nM	1310 nM	–	–
O=C(N[C@H]1CCN(S(=O)(=O)N2CCNCC2)[C@@H](Cc2ccccc2)C1)c1cc(C2CC2)on1 [compound 966, N-((2S,4S)-2-benzyl-1-(piperazin-1-ylsulfonyl)piperidin-4-yl)-5-cyclopropylisoxazole-3-carboxamide]	86.8 nM	1200 nM	–	–
O=C(N[C@H]1C[C@H]2CC[C@@H](C1)N2S(=O)(=O)N1CC2CCC(C1)N2CCN1CCOCC1)c1cc(C2CC2)on1 [compound 967, 5-cyclopropyl-N-((1R,3r,5S)-8-((8-(2-morpholinoethyl)-3,8-diazabicyclo[3.2.1]octan-3-yl)sulfonyl)-8-azabicyclo[3.2.1]octan-3-yl)isoxazole-3-carboxamide]	–	–	87 nM	503 nM
NCc1ccc(S(=O)(=O)N2[C@@H]3CC[C@H]2C[C@@H](NC(=O)c2cc(C4CC4)on2)C3)c(Cl)c1 [compound 968, N-((1R,3r,5S)-8-((4-(aminomethyl)-2-chlorophenyl)sulfony1)-8-azabicyclo[3.2.1]octan-3-yl)-5-cyclopropylisoxazole-3-carboxamide]	–	–	88.3 nM	≥ 10000 nM
CN1CCC[C@@H]1CS(=O)(=O)N1[C@@H]2CC[C@H]1C[C@@H](NC(=O)c1cc(C3CC3)on1)C2 [compound 969, 5-cyclopropyl-N-((1R,3R,5S)-8-((((R)-1-methylpyrrolidin-2-yl)methyl)sulfonyl)-8-azabicyclo[3.2.1]octan-3-yl)isoxazole-3-carboxamide]	–	–	88.6 nM	440 nM
CCc1cc(C(=O)N[C@H]2C[C@H]3CC[C@@H](C2)N3S(=O)(=O)c2ccc(C(C)(C)N)cc2)no1 [compound 970, N-((1R,3r,5S)-8-((4-(2-aminopropan-2-yl)phenyl)sulfonyl)-8-azabicyclo[3.2.1]octan-3-yl)-5-ethylisoxazole-3-carboxamide]	–	–	89.3 nM	748 nM
O=C(N[C@H]1C[C@H]2CC[C@@H](C1)N2S(=O)(=O)C[C@H]1CCCCN1)c1cc(C2CC2)on1 [compound 971, 5-cyclopropyl-N-((1R,3R,5S)-8-((((R)-piperidin-2-yl)methyl)sulfonyl)-8-azabicyclo[3.2.1]octan-3-yl)isoxazole-3-carboxamide]	–	–	90.8 nM	466 nM
C[C@H]1C[C@@H](NC(=O)c2cc(C3CC3)on2)CCN1S(=O)(=O)N1CCC(NC(C)(C)c2ccccc2)CC1 [compound 972, 5-cyclopropyl-N-((2S,4S)-2-methyl-1-((4-((2-phenylpropan-2-yl)amino)piperidin-1-yl)sulfonyl)piperidin-4-yl)isoxazole-3-carboxamide]	–	–	93.3 nM	1270 nM
CN(CCN1CCOCC1)C1CCN(S(=O)(=O)N2[C@@H]3CC[C@H]2C[C@@H](NC(=O)c2cc(C4CC4)on2)C3)CC1 [compound 973, 5-cyclopropyl-N-((1R,3r,5S)-8-((4-(methyl(2-morpholinoethyl)amino)piperidin-1-yl)sulfonyl)-8-azabicyclo[3.2.1]octan-3-yl)isoxazole-3-carboxamide]	–	–	95.3 nM	1020 nM
CC[C@@H]1CN(S(=O)(=O)N2CC[C@H](NC(=O)c3cc(C4CC4)on3)C[C@@H]2C)CCN1 [compound 974, 5-cyclopropyl-N-((2S,4S)-1-(((R)-3-ethylpiperazin-1-yl)sulfonyl)-2-methylpiperidin-4-yl)isoxazole-3-carboxamide]	–	–	99 nM	807 nM
CC(C)C1CNCCN1S(=O)(=O)N1CC[C@H](NC(=O)c2cc(C3CC3)on2)C[C@@H]1C (stereo partly drawn) [compound 975, 5-cyclopropyl-N-((2S,4S)-1-((2-isopropylpiperazin-1-yl)sulfonyl)-2-methylpiperidin-4-yl)isoxazole-3-carboxamide]	–	–	101 nM	914 nM
CN1CCCC[C@H]1CS(=O)(=O)N1[C@@H]2CC[C@H]1C[C@@H](NC(=O)c1cc(C3CC3)on1)C2 [compound 976, 5-cyclopropyl-N-((1R,3S,5S)-8-((((S)-1-methylpiperidin-2-yl)methyl)sulfonyl)-8-azabicyclo[3.2.1]octan-3-yl)isoxazole-3-carboxamide]	–	–	105 nM	555 nM
CN1CC2CCC(C1)N2S(=O)(=O)N1[C@@H]2CC[C@H]1C[C@@H](NC(=O)c1cc(C3CC3)on1)C2 [compound 977, 5-cyclopropyl-N-((1R,3r,5S)-8-((3-methyl-3,8-diazabicyclo[3.2.1]octan-8-yl)sulfonyl)-8-azabicyclo[3.2.1]octan-3-yl)isoxazole-3-carboxamide]	–	–	107 nM	742 nM
CC(C)(NC1CCN(S(=O)(=O)N2[C@@H]3CC[C@H]2C[C@@H](NC(=O)c2cc(C4CC4)on2)C3)CC1)c1ccccc1 [compound 978, 5-cyclopropyl-N-((1R,3r,5S)-8-((4-((2-phenylpropan-2-yl)amino)piperidin-1-yl)sulfonyl)-8-azabicyclo[3.2.1]octan-3-yl)isoxazole-3-carboxamide]	–	–	117 nM	1330 nM
CN1CCC[C@H]1CS(=O)(=O)N1[C@@H]2CC[C@H]1C[C@@H](NC(=O)c1cc(C3CC3)on1)C2 [compound 979, 5-cyclopropyl-N-((1R,3S,5S)-8-((((S)-1-methylpyrrolidin-2-yl)methyl)sulfonyl)-8-azabicyclo[3.2.1]octan-3-yl)isoxazole-3-carboxamide]	–	–	119 nM	436 nM
C[C@H]1C[C@@H](NC(=O)c2cc(C3CC3)on2)CCN1S(=O)(=O)N1CCN(C)C[C@@H]1C [compound 980, 5-cyclopropyl-N-((2S,4S)-1-(((S)-2,4-dimethylpiperazin-1-yl)sulfonyl)-2-methylpiperidin-4-yl)isoxazole-3-carboxamide]	–	–	120 nM	697 nM
O=C(N[C@H]1C[C@H]2CC[C@@H](C1)N2S(=O)(=O)[C@@H]1CCCN(CCO)C1)c1cc(C2CC2)on1 [compound 981, 5-cyclopropyl-N-((1R,3R,5S)-8-(((R)-1-(2-hydroxyethyl)piperidin-3-yl)sulfonyl)-8-azabicyclo[3.2.1]octan-3-yl)isoxazole-3-carboxamide]	–	–	127 nM	466 nM

From patent publication US10577363B2, “Substituted piperidine compounds” (EPIZYME, INC., priority 2014, dated 2020)
